From patent US12202832B2, “Heterocyclic compounds having a calcium-sensing receptor antagonistic activity” (TAKEDA PHARMACEUTICAL COMPANY LIMITED, priority 2017, dated 2025)

Assays:
[1] = biological target: T1, CYP3A4 (Homo sapiens, UniProt P08684); test: CYP3A4 TDI in human liver microsomes (testosterone 6β-hydroxylation); type: in vitro ADME; settings: 30 μM test compound, 60 min vs 0 min preincubation, solvent acetonitrile
T1 construct: Human liver microsomes purchased from XenoTech, LLC (Lenexa, KS) was used; tissue XenoTech, LLC (Lenexa, KS); host or cells: human liver microsomes
Protocol: Human liver microsomes purchased from XenoTech, LLC (Lenexa, KS) was used. Test compounds were dissolved in acetonitrile or DMSO/acetonitrile (1:4, v/v). To a human liver microsomes solution adjusted with phosphate buffer (pH 7.4), the test compound solution was added to obtain a human liver microsomes reaction solution having the test compound concentration of 30 μM. To the human liver microsome reaction solution, NADPH production system was added, and the mixture was preincubated at 37° C. for 0 minutes or 60 minutes. After the preincubation, probe substrate testosterone was added, and testosterone metabolite 6β-hydroxytestosterone was analyzed by LC/MS/MS to evaluate CYP3A4 enzymatic activity.
The enzyme activity (% of control) at each preincubation point was calculated from the following equation: % of control={(activity of test compound addition group)/(activity of test compound non-addition group)}×100.
The remaining activity (% remaining) after 60 minutes of preincubation was calculated from the following equation: Remaining activity (%)={activity after 60 minutes (% of control60 min)}/{activity after 0 minutes (% of control0 min)}×100.

[2] = tested on: CYP3A; test: CYP induction (CYP3A activity in cryopreserved hepatocytes, P450-Glo CYP3A4 assay); type: in vitro ADME; settings: % of positive control; inducibility by 10 μmol/L rifampicin defined as 100%; hepatocytes treated 3 days
Protocol: Cryopreserved hepatocytes were thawed in a culture medium (In VitroGRO™ CP Medium, Celsis In Vitro Technologies, U.S.A.), and the resultant was added to BioCoat™ Matrigel®™ Matrix Thin-Layer 96 well (Becton, Dickinson and Company, U.S.A.) at a concentration of 40,000 cells/well. After culturing for 24 hours, the culture medium was removed, and replaced with an incubation medium (In VitroGRO™, HI Medium with Torpedo Antibiotic Mix, Celsis In Vitro Technologies, U.S.A.). Cells were cultured for an additional 3 days. The medium was removed on day 4, and the remained cells were treated in the induction medium containing a test compound for 3 days in the presence or absence of 10 μmol/L rifampicin. The induction medium was replaced every day. The test compound addition wells in the presence of 10 μmol/L rifampicin were used to evaluate the inhibitory effect of the test compound on the inducibility of the CYP3A activity by rifampicin. The CYP3A activity was evaluated by measuring luciferin generating amount after the addition of 2 μmol/L luciferin-IPA using IPA P450-Glo™ CYP3A4 assay systems (Promega Corporation, U.S.A.). All cultures were carried out under a humidified environment at 37° C., 5% CO2. The inducibility by rifampicin was defines as 100%, and the inducibility of the test compound (% of positive control) was calculated from the following equation: [(luciferin fluorescence intensity in the absence of rifampicin and the presence of test compound)−(luciferin fluorescence intensity in the absence of rifampicin and test compound)/(luciferin fluorescence intensity in the presence of rifampicin and the absence of test compound)−(Luciferin fluorescence intensity in the absence of rifampicin and test compound)]×100.

[3] = biological target: T2, human CaSR (Homo sapiens, UniProt P41180); test: Human CaSR antagonist activity (NFAT-Luciferase reporter in CHO cells); type: cell-based; settings: CHO, CaCl2 final 1.3 mM, 100% = reference antagonist at 10 μM, read-out: Inhibition rate (%) at 3.3 μM
T2 construct: expressed in transfected cells; host or cells: CHO cells
T2 sequence (P41180 20-1078): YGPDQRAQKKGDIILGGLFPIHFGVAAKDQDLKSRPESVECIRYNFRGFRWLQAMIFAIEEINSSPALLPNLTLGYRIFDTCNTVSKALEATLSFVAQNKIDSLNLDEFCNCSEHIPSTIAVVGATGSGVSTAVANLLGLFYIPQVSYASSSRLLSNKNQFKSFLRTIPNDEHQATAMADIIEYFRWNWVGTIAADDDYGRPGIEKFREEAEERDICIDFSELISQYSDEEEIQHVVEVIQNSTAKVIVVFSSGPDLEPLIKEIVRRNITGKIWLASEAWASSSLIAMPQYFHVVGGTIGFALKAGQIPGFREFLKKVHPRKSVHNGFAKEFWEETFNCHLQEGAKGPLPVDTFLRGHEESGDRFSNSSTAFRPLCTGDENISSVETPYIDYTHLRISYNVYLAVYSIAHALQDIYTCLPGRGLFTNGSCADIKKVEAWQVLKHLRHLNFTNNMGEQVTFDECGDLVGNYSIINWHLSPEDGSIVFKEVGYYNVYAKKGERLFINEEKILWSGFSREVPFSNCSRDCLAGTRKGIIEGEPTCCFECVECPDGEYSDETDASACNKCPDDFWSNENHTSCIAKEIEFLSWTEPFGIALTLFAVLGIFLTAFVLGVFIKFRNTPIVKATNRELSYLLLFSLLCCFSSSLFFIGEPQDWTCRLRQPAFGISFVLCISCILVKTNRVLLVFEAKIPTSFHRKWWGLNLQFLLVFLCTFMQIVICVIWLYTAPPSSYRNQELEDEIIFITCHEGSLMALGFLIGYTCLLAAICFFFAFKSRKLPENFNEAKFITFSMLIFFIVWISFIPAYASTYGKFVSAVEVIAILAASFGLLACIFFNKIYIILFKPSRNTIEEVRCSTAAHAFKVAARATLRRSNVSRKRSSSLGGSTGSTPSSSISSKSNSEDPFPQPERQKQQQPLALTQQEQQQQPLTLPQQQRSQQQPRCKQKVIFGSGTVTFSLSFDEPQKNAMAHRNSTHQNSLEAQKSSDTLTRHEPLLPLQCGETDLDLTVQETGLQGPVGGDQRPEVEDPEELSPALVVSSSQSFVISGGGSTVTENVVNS
Protocol: CaSR antagonist activity measurement was performed using Bright-Glo Luciferase assay system (Promega Corporation). CHO cells in which human CaSR and NFAT-Luciferase reporter gene were forcibly expressed were suspended in MEM alpha (Wako Pure Chemical Industries, Ltd.) containing 10% dialyzed serum (HyClone). The cells in suspension was seeded in 384-well white plate (Corning) at 10,000/20 μL/well, and cultured in an incubator of 37° C., 5% CO2 for one day. A diluent of Test compound was prepared with assay buffer (MEM alpha containing 10 mM HEPES (Life Technologies) and 10% dialysis serum). The diluent was added to the plate at 5 μL/well and allowed to stand at 37° C. for 10 minutes. Further, a diluent of 7.8 mM CaCl2 prepared with assay buffer (final concentration 1.3 mM) was added at 5 μl/well and allowed to stand in an incubator of 37° C., 5% CO2 for 2 hours. Bright-Glo reagents (Promega Corporation) were added at 10 μL/well, and the obtained mixture was stirred for 5 minutes, and then luminescence intensity was measured using Multi-label reader Envision (PerkinElmer, Inc.). The activity (%) of the test compound was calculated with the definitions in which the luminescence intensity when DMSO is added in place of the test compound is defined as 0% inhibition; and the luminescence intensity when (5R)—N-(1-ethyl-1-(4-ethylphenyl)propyl)-2,7,7-trimethyl-5-phenyl-4,5,6,7-tetrahydropyrazolo[1,5-a] Pyrimidine-3-carboxamide at final concentration of 10 μM is added is defined as 100% inhibition.

[4] = tested on: hypoxia-induced pulmonary hypertension (HPH) mice; settings: cited from earlier work
[5] = tested on: monocrotaline (MCT)-induced pulmonary hypertension rats; settings: cited from earlier work
[6] = tested on: cardiac hypofunction; settings: dosing after cardiac loading; cited from earlier work
[7] = tested on: aortic banding (TAC) models; settings: cited from earlier work

T1 sequence (P08684 whole entry): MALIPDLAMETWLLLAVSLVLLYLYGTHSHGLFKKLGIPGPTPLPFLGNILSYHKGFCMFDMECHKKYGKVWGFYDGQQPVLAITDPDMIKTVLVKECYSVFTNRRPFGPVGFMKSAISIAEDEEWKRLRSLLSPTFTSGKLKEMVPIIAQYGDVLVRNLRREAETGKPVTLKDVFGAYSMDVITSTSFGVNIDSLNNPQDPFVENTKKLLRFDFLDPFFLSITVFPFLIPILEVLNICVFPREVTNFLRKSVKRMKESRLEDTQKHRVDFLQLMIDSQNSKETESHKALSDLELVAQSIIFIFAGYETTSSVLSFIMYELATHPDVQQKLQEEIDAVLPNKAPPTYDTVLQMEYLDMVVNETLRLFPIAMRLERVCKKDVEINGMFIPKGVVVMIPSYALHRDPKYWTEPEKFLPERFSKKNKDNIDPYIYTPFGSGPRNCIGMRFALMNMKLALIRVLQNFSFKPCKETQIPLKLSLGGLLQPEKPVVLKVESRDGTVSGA

| Compound | Remaining Activity [1] | Inducibility [2] | inhibition at 3.3 µM [3] | Effect on pulmonary hypertension pathology [4] | Effect on pulmonary hypertension pathology [5] | Effect on cardiac hypofunction [6] | Effect on cardiac hypertrophy [7] |
| --- | --- | --- | --- | --- | --- | --- | --- |
| CC(C)(Cc1ccc2ccccc2c1)NC[C@@H](O)COc1cccc(Cl)c1C#N [NPS-2143] |  |  |  | suppressed cardiac hypertrophy, elevated right ventricular systolic pressure, fibrosis of cardiac muscle tissue, pulmonary vascular remodeling or the like | suppressed cardiac hypertrophy, elevated right ventricular systolic pressure, fibrosis of cardiac muscle tissue, pulmonary vascular remodeling or the like |  |  |
| C[C@@H](N[C@H]1CCCC[C@@H]1NC(=O)c1ccc(Cl)cc1)c1cccc2ccccc12 [Calhex231] |  |  |  |  |  | fails to improve cardiac hypofunction | improves cardiac hypertrophy |
| CCc1ccc(C(CC)(NC(=O)c2cnn3c2N[C@@H](c2ccccc2)CC3(C)C)C(=O)N[C@@H](CC)C(N)=O)cc1 (single isomer, unassigned) [Example 6] | 80.2% | 18.6% | 105% |  |  |  |  |

The next lines start with results.

| Remaining Activity [1] | Inducibility [2] | inhibition at 3.3 µM [3] | Compound | Effect on pulmonary hypertension pathology [4] | Effect on pulmonary hypertension pathology [5] | Effect on cardiac hypofunction [6] | Effect on cardiac hypertrophy [7] |
| --- | --- | --- | --- | --- | --- | --- | --- |
| 95.6% | 20.8% | 102% | CCc1ccc(C(CC)(NC(=O)c2cnn3c2N[C@@H](c2ccccc2)CC3(C)C)C(=O)N[C@@H](C)C(N)=O)cc1 (single isomer, unassigned) [Example 4] |  |  |  |  |
| 74.3% | 17.3% | 99% | CCc1ccc(C(CC)(NC(=O)c2cnn3c2N[C@@H](c2ccccc2)CC3(C)C)C(=O)N[C@H](C(N)=O)C(C)C)cc1 (single isomer, unassigned) [Example 12] |  |  |  |  |
